Source: US11712434B2, “Compound having anti-cancer effect, and preparation method therefor and use thereof” (3D MEDICINES (BEIJING) CO., LTD., priority 2016, dated 2023)

Assays:
Assay in all cases: Cell proliferation assay (Alamar Blue)
Assay type in all cases: cell-based
22RV1 = 22RV1 tumor cell line, 6 days culture
Method: (§1) 1. Instruments and Materials • Thermo 311 CO2 incubator; Haier biosafety cabinet; Molecular Devices microplate reader; Xiangyi brand L530 desktop low speed centrifuge; Olympus IX51 inverted fluorescence microscope, DMEM, RPMI 1640, MEM, DMEM/F12 1:1 medium, Fetal bovine serum, 0.25% trypsin solution, phosphate buffer (Thermo Fisher Shanghai Co., Ltd.); sigma dimethyl sulfoxide (DMSO), resazurin; 54 commercial tumor cell lines (including 26 liver cancer cell lines). Experimental drugs: compounds 1-12 and active drug Linifanib; chemotherapeutic drug Doxorubicin (HY-15142; Shanghai Qianyuan Biomedical Technology Co., Ltd.).
(§2) 2. Experimental Methods • 2.1 Cultivation of Different Cell Lines • 54 cell lines were cultured in a culture medium containing fetal bovine serum and placed in a 5% CO2 incubator at 37° C. for incubation. The cells were all grown in an adherent state, and the growth was observed under an inverted microscope, and subculture was performed when the cell confluence rate reached 80%-90%. The proportion and quantity of passage were determined by experimental needs. The ratio of subculture of this cell line was generally 1:2^˜1:3. • 2.2 Inhibition Effect on the Proliferation of Different Tumor Cell Lines • Cell test: 54 cell lines in logarithmic growth phase were inoculated in 96-well culture plates at 500^˜1×10^4/well (the optimal seeding density of each cell line was determined in pre-experiment), After incubating at 37° C. for 4 h in a 5% CO2 humidification incubator, added 10 μL of compounds 1-12 or Linifanib to each well, and tested 9 drug concentration gradients for each compound (diluted from the highest concentration of the test by 3.16 times). The solubility of each compound was different at a starting concentration of 100 or 30 μM, respectively. The QC reference compound Doxorubicin was added simultaneously to each cell line test, and the final drug concentrations were 10, 3.16, 1, 0.31, 0.1, 0.03, 0.01, 0.003, and 0.001 μM, respectively. In addition, a positive control group (100% inhibition) and a negative control group (0% inhibition) were set at the same time. The drug group was repeated for 2 wells per concentration, and the positive control group and the negative control group were repeated for 6 wells. After the culture was continued for 6 days in the incubator, AlamarBlue test operation was followed; • AlamarBlue test procedure: Incubated with 10 μL of AlamarBlue reagent per well for 1-4 h, shook for 1-2 min, MD microplate reader EX: 560 nm, EM: 590 nm wavelength to measure fluorescence, recorded the results, calculated the cell inhibition rate of the compound of the invention. Cell inhibition rate (%)=(A0% inhibition−A administration)/(A0% inhibition−A100% inhibition)×100%, and then using the method of nonlinear regression using GraphPad Prism 5.0 or MATILAB software (usually using four parameters) to graph and obtain a drug dose response curve to obtain an IC50 value of the compound of the present invention acting on a cancer cell line.

AN3CA = AN3CA tumor cell line, 6 days culture
Method: as §1, §2

Alexander cells = Alexander cells liver cancer cell line, 6 days culture
Method: as §1, §2

HLF = HLF liver cancer cell line, 6 days culture
Method: as §1, §2

HT1080 = HT1080 tumor cell line, 6 days culture
Method: as §1, §2

HUH1 = HUH1 liver cancer cell line, 6 days culture
Method: as §1, §2

Hep3B2.1-7 = Hep3B2.1-7 liver cancer cell line, 6 days culture
Method: as §1, §2

HuTu80 = HuTu80 tumor cell line, 6 days culture
Method: as §1, §2

JHH1 = JHH1 liver cancer cell line, 6 days culture
Method: as §1, §2

JHH2 = JHH2 liver cancer cell line, 6 days culture
Method: as §1, §2

JHH4 = JHH4 liver cancer cell line, 6 days culture
Method: as §1, §2

JHH6 = JHH6 liver cancer cell line, 6 days culture
Method: as §1, §2

JHH7 = JHH7 liver cancer cell line, 6 days culture
Method: as §1, §2

KASUMI-1 = KASUMI-1 (leukemia cells), 6 days culture
Method: as §1, §2

KM12 = KM12 tumor cell line, 6 days culture
Method: as §1, §2

LC-2-ad = LC-2-ad tumor cell line, 6 days culture
Method: as §1, §2

NCI-H1648 = NCI-H1648 tumor cell line, 6 days culture
Method: as §1, §2

NCI-H1703 = NCI-H1703 (lung cancer cells), 6 days culture
Method: as §1, §2

NCI-H661 = NCI-H661 tumor cell line, 6 days culture
Method: as §1, §2

SK-HEP-1 = SK-HEP-1 liver cancer cell line, 6 days culture
Method: as §1, §2

SNU182 = SNU182 liver cancer cell line, 6 days culture
Method: as §1, §2

SNU398 = SNU398 liver cancer cell line, 6 days culture
Method: as §1, §2

SNU423 = SNU423 liver cancer cell line, 6 days culture
Method: as §1, §2

SNU739 = SNU739 liver cancer cell line, 6 days culture
Method: as §1, §2

SNU761 = SNU761 liver cancer cell line, 6 days culture
Method: as §1, §2

SNU886 = SNU886 liver cancer cell line, 6 days culture
Method: as §1, §2

T.T = T.T tumor cell line, 6 days culture
Method: as §1, §2

TE-6 = TE-6 tumor cell line, 6 days culture
Method: as §1, §2

`Cc1ccc(F)c(NC(=O)Nc2ccc(-c3cccc4[nH]nc(NC(=O)CCCCCNC(=O)C[C@H](N)C(=O)N[C@@H](CCC(=O)O)C(=O)O)c34)cc2)c1` [Compound 4] was tested, and the IC50 (22RV1) was greater than 100 µM, the IC50 (AN3CA) was 24.9 µM and the IC50 (Alexander cells) was greater than 100 µM. It also gave an IC50 (HLF) greater than 100 µM, an IC50 (HT1080) greater than 100 µM and an IC50 (HUH1) greater than 100 µM. It also gave an IC50 (Hep3B2.1-7) greater than 100 µM, an IC50 (HuTu80) of 75.4 µM and an IC50 (JHH1) greater than 100 µM. The IC50 (JHH2) was greater than 100 µM, the IC50 (JHH4) was greater than 100 µM and the IC50 (JHH6) was greater than 100 µM. For the same compound, the IC50 (JHH7) was greater than 100 µM, the IC50 (KASUMI-1) was 1.53 µM and the IC50 (KM12) was greater than 100 µM. It also gave an IC50 (LC-2-ad) greater than 100 µM, an IC50 (NCI-H1648) greater than 100 µM and an IC50 (NCI-H1703) of 1.24 µM. For the same compound, the IC50 (NCI-H661) was greater than 100 µM, the IC50 (SK-HEP-1) was greater than 100 µM and the IC50 (SNU182) was greater than 100 µM. The IC50 (SNU398) was greater than 100 µM, the IC50 (SNU423) was greater than 100 µM and the IC50 (SNU739) was greater than 100 µM. The IC50 (SNU761) was greater than 100 µM, the IC50 (SNU886) was greater than 100 µM and the IC50 (T.T) was greater than 100 µM. For the same compound, the IC50 (TE-6) was greater than 100 µM.
`Cc1ccc(F)c(NC(=O)Nc2ccc(-c3cccc4[nH]nc(NC(=O)CCCCCNC(=O)C[C@H](N)C(=O)N[C@@H](CCC(=O)N[C@@H](CCC(=O)N[C@@H](CCC(=O)N[C@@H](CCC(=O)O)C(=O)O)C(=O)O)C(=O)O)C(=O)O)c34)cc2)c1` [Compound 5] gave an IC50 (22RV1; Homo sapiens, 144 h) greater than 100 µM, an IC50 (AN3CA; Homo sapiens, AN3-CA, 144 h) of 41.4 µM and an IC50 (Alexander cells; 144 h) greater than 100 µM. It also gave an IC50 (HLF; 144 h) greater than 100 µM, an IC50 (HT1080; Homo sapiens, HT-1080, 144 h) greater than 100 µM and an IC50 (HUH1; Homo sapiens, HuH-1, 144 h) greater than 100 µM. For the same compound, the IC50 (Hep3B2.1-7; 144 h) was greater than 100 µM, the IC50 (HuTu80; Homo sapiens, 144 h) was greater than 100 µM and the IC50 (JHH1; 144 h) was greater than 100 µM. It also gave an IC50 (JHH2; JHH-2, 144 h) greater than 100 µM, an IC50 (JHH4; JHH-4, 144 h) greater than 100 µM and an IC50 (JHH6; 144 h) greater than 100 µM. It also gave an IC50 (JHH7; 144 h) greater than 100 µM, an IC50 (KASUMI-1; Homo sapiens, 144 h) of 4.26 µM and an IC50 (KM12; Homo sapiens, 144 h) greater than 100 µM. The IC50 (LC-2-ad; Homo sapiens, 144 h) was greater than 100 µM, the IC50 (NCI-H1648; Homo sapiens, 144 h) was greater than 100 µM and the IC50 (NCI-H1703; Homo sapiens, 144 h) was 2.81 µM. The IC50 (NCI-H661; Homo sapiens, 144 h) was greater than 100 µM, the IC50 (SK-HEP-1; Homo sapiens, SK-HEP1, 144 h) was greater than 100 µM and the IC50 (SNU182; Homo sapiens, SNU-182, 144 h) was greater than 100 µM. It also gave an IC50 (SNU398; Homo sapiens, SNU-398, 144 h) greater than 100 µM, an IC50 (SNU423; Homo sapiens, SNU-423, 144 h) greater than 100 µM and an IC50 (SNU739; SNU-739, 144 h) greater than 100 µM. The IC50 (SNU761; 144 h) was greater than 100 µM, the IC50 (SNU886; SNU-886, 144 h) was greater than 100 µM and the IC50 (T.T; Homo sapiens, TT, 144 h) was greater than 100 µM. It also gave an IC50 (TE-6; Homo sapiens, 144 h) greater than 100 µM.
`Cc1ccc(F)c(NC(=O)Nc2ccc(-c3cccc4[nH]nc(NC(=O)CCCCCNC(=O)C[C@H](N)C(=O)O)c34)cc2)c1` [Compound 11] gave an IC50 (22RV1) greater than 100 µM, an IC50 (AN3CA) of 17.4 µM and an IC50 (Alexander cells) greater than 100 µM. For the same compound, the IC50 (HLF) was 95.7 µM, the IC50 (HT1080) was greater than 100 µM and the IC50 (HUH1) was greater than 100 µM. The IC50 (Hep3B2.1-7) was greater than 100 µM, the IC50 (HuTu80) was 63.1 µM and the IC50 (JHH1) was greater than 100 µM. The IC50 (JHH2) was greater than 100 µM, the IC50 (JHH4) was greater than 100 µM and the IC50 (JHH6) was greater than 100 µM. The IC50 (JHH7) was greater than 100 µM, the IC50 (KASUMI-1) was 1.09 µM and the IC50 (KM12) was greater than 100 µM. For the same compound, the IC50 (LC-2-ad) was greater than 100 µM, the IC50 (NCI-H1648) was greater than 100 µM and the IC50 (NCI-H1703) was 0.83 µM. For the same compound, the IC50 (NCI-H661) was greater than 100 µM, the IC50 (SK-HEP-1) was greater than 100 µM and the IC50 (SNU182) was greater than 100 µM. For the same compound, the IC50 (SNU398) was greater than 100 µM, the IC50 (SNU423) was greater than 100 µM and the IC50 (SNU739) was greater than 100 µM. The IC50 (SNU761) was greater than 100 µM, the IC50 (SNU886) was greater than 100 µM and the IC50 (T.T) was greater than 100 µM. The IC50 (TE-6) was greater than 100 µM.
